Measurements reported in patent US7141553B2, “A3AR agonists for the treatment of inflammatory arthritis” (Can-Fite Biopharma Ltd. Israel, priority 2002, dated 2006).

Tests used:
[1] = Repeat dose study in healthy men, plasma pharmacokinetics; type: in vivo, human; settings: for Cmax: n=5
Method: (§1) In the single dose study, 15 healthy men (3 groups of 5) received a single oral dose of IB-MECA (1, 5 or 10 mg) or placebo. In each group, 1 subject received placebo. In the repeated dose study, 28 healthy men (4 groups of 7) received repeated oral doses of IB-MECA (2, 3, 4 or 5 mg) or placebo every 12 h for 7 days. In each group, 2 subjects received placebo.
(§2) In the single dose study, a solution with IB-MECA powder in 30% Cremophor RH40 (BASF) was used. In the repeated dose study, an aqueous 0.5% methylcellulose suspension (Methocel A4M Premium, The Dow Chemical Company) was used. In both studies, the study medication was taken orally as a drink, followed by 50 ml of tap water.
(§3) The following procedures were done: • Safety assesment: laboratory assessments (routine biochemistry and urinalysis), physical examination, 12-lead ECG, ambulatory ECG, pulmonary function testing (FEV1), vital signs (semi-recumbent in the single dose study; semi-recumbent and standing in the repeat dose study). Adverse events were recorded throughout both studies. • Determination of IB-MECA blood level: in the single dose study blood samples for assay of IB-MECA were taken immediately before and at 0.25, 0.5, 1, 2, 4, 8, 12, 24, and 48 h after dosing; in the repeat dose study—blood samples were taken immediately before and at 0.25, 0.5, 1, 2, 4, 8, and 12 h after dosing on Day 1, before dosing on Days 2–6, and before and at 0.25, 0.5, 1, 2, 4, 8, 12, and 24 h after dosing on Day 7.
(§4) Plasma samples were assayed for IB-MECA using LC/MS/MS. The lower limit of quantification (LLOQ) was 0.1 ng/mL. Intra-assay coefficients of variation (CV) were <5.0% and inter-assay CVs were <9.4%.
(§5) Maximum concentration (Cmax) and time to maximum concentration (tmax) were observed values. Other pharmacokinetic parameters (half-life, t^1/2; AUC; and clearance, CL/F) were calculated by non-compartmental methods using WinNonlin® software (version 3.0, Pharsight, Mountain View, Calif., US). Accumulation indices of Cmax and AUC were calculated as ratio of values at steady state (Day 7) to the values on Day 1.

[2] = Single dose study in healthy men, plasma pharmacokinetics; type: in vivo, human
Method: as §1, §2, §3, §4, §5

[3] = test system: collagen-induced arthritis; settings: 0.5 mg/kg a day; cited from earlier work
[4] = test system: healthy men; test: Repeat dose study in healthy men, safety and tolerability; type: in vivo, human
Method: (§6) Two clinical studies were carried out: a single dose study and a repeat dose study. Both studies were parallel-group, double-blind, dose-rising, and placebo-controlled in design.
as §1
(§7) Healthy young men, aged 18–45 years.
as §2, §3
(§8) Data from all subjects who received IB-MECA were included in the analysis of safety and tolerability (adverse events and laboratory safety variables). Numerical data and parameters were summarised using means or medians, and other descriptive statistics, according to the type and distribution of the data.

[5] = test system: macrophages; settings: dose dependent; cited from earlier work
[6] = test system: healthy men; test: Single dose study in healthy men, safety and tolerability; type: in vivo, human; settings: for maximal tolerated dose: once daily administration
Method: as §6, §1, §7, §2, §3, §8

[7] = 2 mg every 12 h, Day 1, mean (SD)
[8] = 2 mg every 12 h, Day 7, mean (SD)
[9] = 3 mg every 12 h, Day 1, mean (SD)
[10] = 3 mg every 12 h, Day 7, mean (SD)
[11] = 4 mg every 12 h, Day 1, mean (SD)
[12] = 4 mg every 12 h, Day 7, mean (SD)
[13] = 5 mg every 12 h, Day 1, mean (SD)
[14] = 5 mg every 12 h, Day 7, mean (SD)
[15] = repeated doses, independent of dose
[16] = single doses 1-10 mg, independent of dose
[17] = single oral dose 1 mg, mean (SD)
[18] = single oral dose 5 mg, mean (SD)
[19] = single oral dose 10 mg, mean (SD)

CNC(=O)[C@H]1O[C@@H](n2cnc3c(NCc4cccc(I)c4)ncnc32)[C@H](O)[C@@H]1O [IB-MECA, N6-(3-iodobenzyl)-adenosine-5′-N-methyl-uronamide]
AUC (AUC(inf) on Day 1) [1, 7]: 207.4 (52.0) ng · h/mL | AUC(0–12) [1, 7]: 155.2 (39.1) ng · h/mL | CL/F [1, 7]: 10.1 (2.3) L/h | t1/2 [1, 7]: 5.52 (0.2) h | Cmax [1, 7]: 22.0 (3.3) ng/mL | tmax ([1]; 2 mg every 12 h, Day 1, median (range)): 2 (1–4) h | AUC (AUC(0–24) on Day 7) [1, 8]: 346.3 (64.0) ng · h/mL | AUC(0–12) [1, 8]: 242.4 (41.4) ng · h/mL | CL/F [1, 8]: 4.9 (0.7) L/h | t1/2 [1, 8]: 9.83 (1.2) h | Cmax [1, 8]: 30.9 (3.1) ng/mL | tmax ([1]; 2 mg every 12 h, Day 7, median (range)): 2 (1–2) h | AUC (AUC(inf) on Day 1) [1, 9]: 423.5 (27.5) ng · h/mL | AUC(0–12) [1, 9]: 304.5 (19.5) ng · h/mL | CL/F [1, 9]: 7.1 (0.5) L/h | t1/2 [1, 9]: 6.29 (1.0) h | Cmax [1, 9]: 49.3 (9.7) ng/mL | tmax ([1]; 3 mg every 12 h, Day 1, median (range)): 2 (1–2) h | AUC (AUC(0–24) on Day 7) [1, 10]: 512.1 (74.1) ng · h/mL | AUC(0–12) [1, 10]: 341.6 (38.1) ng · h/mL | CL/F [1, 10]: 5.0 (0.6) L/h | t1/2 [1, 10]: 9.25 (0.8) h | Cmax [1, 10]: 49.0 (7.9) ng/mL | tmax ([1]; 3 mg every 12 h, Day 7, median (range)): 1 (1–2) h | AUC (AUC(inf) on Day 1) [1, 11]: 400.2 (85.7) ng · h/mL | AUC(0–12) [1, 11]: 297.0 (57.2) ng · h/mL | CL/F [1, 11]: 10.4 (2.1) L/h | t1/2 [1, 11]: 5.77 (0.6) h | Cmax [1, 11]: 46.2 (11.4) ng/mL | tmax ([1]; 4 mg every 12 h, Day 1, median (range)): 2 (1–2) h | AUC (AUC(0–24) on Day 7) [1, 12]: 640.3 (73.7) ng · h/mL | AUC(0–12) [1, 12]: 458.3 (54.8) ng · h/mL | CL/F [1, 12]: 5.4 (0.7) L/h | t1/2 [1, 12]: 8.93 (0.8) h | Cmax [1, 12]: 58.1 (10.4) ng/mL | tmax ([1]; 4 mg every 12 h, Day 7, median (range)): 1 (1–2) h | AUC (AUC(inf) on Day 1) [1, 13]: 596.1 (196.6) ng · h/mL | AUC(0–12) [1, 13]: 461.6 (157.4) ng · h/mL | CL/F [1, 13]: 9.3 (3.5) L/h | t1/2 [1, 13]: 4.96 (0.3) h | Cmax [1, 13]: 63.6 (22.0) ng/mL | tmax ([1]; 5 mg every 12 h, Day 1, median (range)): 2 (1–2) h | AUC (AUC(0–24) on Day 7) [1, 14]: 818.4 (214.0) ng · h/mL | AUC(0–12) [1, 14]: 601.0 (163.6) ng · h/mL | CL/F [1, 14]: 5.4 (1.5) L/h | t1/2 [1, 14]: 9.39 (0.6) h | Cmax [1, 14]: 79.5 (24.1) ng/mL | tmax ([1]; 5 mg every 12 h, Day 7, median (range)): 2 (2–2) h | accumulation index for AUC ([1]; ratio Day 7 to Day 1): 1.1–1.6 | accumulation index for Cmax ([1]; ratio Day 7 to Day 1): 1–1.4 | tmax ([1]; repeated doses 2-5 mg every 12 h): 1 to 2 h | steady state reached by ([1]; repeated doses every 12 h): ≤ 3 days | apparent plasma clearance (CL/F) [1, 15]: 5 to 10 L/h | half-life at steady state [1, 15]: 9 to 10 h | plasma level (Cmax) ([2]; single daily dose of 5 mg and twice daily dose of 4 mg): < 80 ng/mL | Cmax ([2]; single daily dose of 5 mg and twice daily dose of 4 mg, read-out: plasma level (Cmax)): < 160 nM | tmax ([2]; single doses 1-10 mg): 1 to 2 h | apparent plasma clearance (CL/F) [2, 16]: 4 to 7 L/h | half-life [2, 16]: about 8.5 h | AUC(0–48) [2, 17]: 220.7 ng·h/mL | AUC(inf) [2, 17]: 225.2 (21.7) ng · h/mL | CL/F [2, 17]: 4.5 (0.4) L/h | t1/2 [2, 17]: 8.7 (0.7) h | Cmax ([2]; single oral dose 1 mg, mean (SD), n=4): 21.2 ng/mL | tmax ([2]; single oral dose 1 mg, median (range)): 1 (1–2) h | AUC(0–48) [2, 18]: 872.3 ng·h/mL | AUC(inf) [2, 18]: 904.0 (221.9) ng · h/mL | CL/F [2, 18]: 5.8 (1.4) L/h | t1/2 [2, 18]: 8.3 (0.2) h | Cmax ([2]; single oral dose 5 mg, mean (SD), n=4): 81.6 ng/mL | tmax ([2]; single oral dose 5 mg, median (range)): 1 (1–2) h | AUC(0–48) [2, 19]: 1780.0 ng·h/mL | AUC(inf) [2, 19]: 1813.0 (226.5) ng · h/mL | CL/F [2, 19]: 5.6 (0.7) L/h | t1/2 [2, 19]: 8.6 (0.4) h | Cmax ([2]; single oral dose 10 mg, mean (SD), n=4): 178.0 ng/mL | tmax ([2]; single oral dose 10 mg, median (range)): 1 (1–2) h | severity of joint inflammation [3]: reduced the severity of joint inflammation | safety profile ([4]; 2-5 mg every 12 h for 7 days, vital signs, physical examination, FEV1, ECG): acceptable safety profile | heart rate ([4]; Day 1 of repeated dosing, effect smaller on Day 7): dose-related increase in heart rate | tolerability ([4]; repeat doses of up to 4 mg 12-hourly): safe and well tolerated | adverse events within 12 h of dosing ([4]; repeated doses of 5 mg 12-hourly): 13 | adverse events within 12 h of dosing ([4]; repeated doses of up to 4 mg 12-hourly): 2 | maximal tolerated dose ([4]; twice daily administration): 4 mg | production of MIP-1α in macrophages [5]: suppresses the production of MIP-1α | production of the cytokines IL-1, IL-2, IL-6 as well as NO [5]: inhibit, also in a dose dependent manner | change in resting heart rate ([6]; after single 5 mg dose, four subjects): small increase in resting heart rate | resting heart rate ([6]; after single 10 mg dose, 2 subjects, considered drug-related): up to 115 beats/min | maximal tolerated dose [6]: about 5 mg | maximal tolerated dose ([6]; calculated on average human weight of 70 Kg): about 70 micro ram/Kg | adverse events within 12 h of dosing ([6]; single dose of 10 mg): 8 | adverse events within 12 h of dosing ([6]; single doses of up to 5 mg): no adverse events | tolerability ([6]; single oral doses of up to 5 mg): safe and well tolerated
